Test results from PubChem BioAssay (NCI).
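Interpolation was linear, between the two tested concentrations surrounding the appropriate level; five concentrations were tested over 48 hours in 96-well plates. Abbreviation: GI50, concentration required for 50% inhibition of growth. TGI denotes the concentration required for complete inhibition of growth.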

How the values were obtained:
Assay in all cases: NCI tumour cell line growth inhibition, 48 h
[1] = test system: MALME-3M melanoma
[2] = test system: EKVX NSCLC
[3] = test system: TK-10 renal
[4] = test system: A549 NSCLC
[5] = test system: MDA-MB-435
[6] = test system: SNB-19 CNS
[7] = test system: A498 renal
[8] = test system: SF-268 CNS
[9] = test system: SNB-75 CNS
[10] = test system: MOLT-4 leukemia
[11] = test system: COLO 205 colon
[12] = test system: NCI-H460 lung
[13] = test system: KM12 colon
[14] = test system: HS 578T breast
[15] = test system: LOX IMVI melanoma
[16] = test system: MCF7 breast
[17] = test system: SK-MEL-2 melanoma
[18] = test system: HT29 colon
[19] = test system: RPMI-8226 leukemia
[20] = test system: SK-MEL-28 melanoma
[21] = test system: OVCAR-3 ovarian
[22] = test system: SK-OV-3 ovarian
[23] = test system: NCI-H226 lung
[24] = test system: K-562 leukemia
[25] = test system: T-47D breast
[26] = test system: SF-539 CNS
[27] = test system: HOP-62 NSCLC
[28] = test system: NCI-H522 lung
[29] = test system: OVCAR-8 ovarian
[30] = test system: HCT-15 colon
[31] = test system: BT-549 breast
[32] = test system: M14 melanoma
[33] = test system: CAKI-1 renal
[34] = test system: HCC-2998 colon
[35] = test system: UO-31 renal
[36] = test system: 786-0 renal
[37] = test system: SW-620 colon
[38] = test system: SR leukemia
[39] = test system: SK-MEL-5 melanoma
[40] = test system: SN12C renal
[41] = test system: RXF 393 renal
[42] = test system: SF-295 CNS
[43] = test system: PC-3 prostate
[44] = test system: NCI/ADR-RES ovarian
[45] = test system: U251 CNS
[46] = test system: DU-145 prostate
[47] = test system: CCRF-CEM leukemia
[48] = test system: HOP-92 NSCLC
[49] = test system: UACC-62 melanoma
[50] = test system: OVCAR-4 ovarian
[51] = test system: IGROV1 ovarian
[52] = test system: MDA-MB-231 breast
[53] = test system: OVCAR-5 ovarian
[54] = test system: HL-60(TB) leukemia
[55] = test system: ACHN renal
[56] = test system: UACC-257 melanoma
[57] = test system: HCT-116 colon

Structure (SMILES): O=C(CSc1nc2sc3c(c2c(=O)n1-c1ccc(Cl)cc1)CCCC3)NNC(=O)Nc1cccc(C(F)(F)F)c1
- GI50 [1]: 2.06 µM
- TGI [1]: 5.23 µM
- GI50 [2]: 2.45 µM
- TGI [2]: 8.32 µM
- GI50 [3]: 3.43 µM
- TGI [3]: 9.9 µM
- GI50 [4]: 2.97 µM
- TGI [4]: 12.3 µM
- GI50 [5]: 2.89 µM
- TGI [5]: 8.95 µM
- GI50 [6]: 3.97 µM
- TGI [6]: 77.3 µM
- GI50 [7]: 1.96 µM
- TGI [7]: 4.85 µM
- GI50 [8]: 5.82 µM
- TGI [8]: 48.6 µM
- GI50 [9]: 3.42 µM
- TGI [9]: 18.9 µM
- GI50 [10]: 2.9 µM
- TGI [10]: > 100 µM
- GI50 [11]: 1.92 µM
- TGI [11]: 3.52 µM
- GI50 [12]: 3.12 µM
- TGI [12]: 10.5 µM
- GI50 [13]: 3.75 µM
- TGI [13]: 23.5 µM
- GI50 [14]: 3.1 µM
- TGI [14]: 21.6 µM
- GI50 [15]: 1.68 µM
- TGI [15]: 3.33 µM
- GI50 [16]: 2.4 µM
- TGI [16]: 10 µM
- GI50 [17]: 2.21 µM
- TGI [17]: 5.75 µM
- GI50 [18]: 2.33 µM
- TGI [18]: 5.85 µM
- GI50 [19]: 2.87 µM
- TGI [19]: > 100 µM
- GI50 [20]: 3.69 µM
- TGI [20]: 14 µM
- GI50 [21]: 3.15 µM
- TGI [21]: 11.5 µM
- GI50 [22]: 2.13 µM
- TGI [22]: 6.06 µM
- GI50 [23]: 2.78 µM
- TGI [23]: 8.31 µM
- GI50 [24]: 2.64 µM
- TGI [24]: > 100 µM
- GI50 [25]: 2.29 µM
- TGI [25]: 7.14 µM
- GI50 [26]: 3.46 µM
- TGI [26]: 11.9 µM
- GI50 [27]: 3.3 µM
- TGI [27]: 13.5 µM
- GI50 [28]: 1.81 µM
- TGI [28]: 4.51 µM
- GI50 [29]: 2.85 µM
- TGI [29]: 9.3 µM
- GI50 [30]: 3.05 µM
- TGI [30]: 11.5 µM
- GI50 [31]: 2.02 µM
- TGI [31]: 5.9 µM
- GI50 [32]: 3.2 µM
- TGI [32]: 11.3 µM
- GI50 [33]: 2.31 µM
- TGI [33]: 7.14 µM
- GI50 [34]: 2.99 µM
- TGI [34]: 11.9 µM
- GI50 [35]: 2.84 µM
- TGI [35]: 12.6 µM
- GI50 [36]: 2.7 µM
- TGI [36]: 9.79 µM
- GI50 [37]: 3.49 µM
- TGI [37]: 15 µM
- GI50 [38]: 2.74 µM
- TGI [38]: > 100 µM
- GI50 [39]: 2.88 µM
- TGI [39]: 8.81 µM
- GI50 [40]: 2.83 µM
- TGI [40]: 8.44 µM
- GI50 [41]: 2.31 µM
- TGI [41]: 6.48 µM
- GI50 [42]: 2.28 µM
- TGI [42]: 6.16 µM
- GI50 [43]: 2.5 µM
- GI50 [44]: 3.12 µM
- TGI [44]: 14 µM
- GI50 [45]: 2 µM
- TGI [45]: 4.39 µM
- GI50 [46]: 4.12 µM
- TGI [46]: > 100 µM
- GI50 [47]: 3.53 µM
- TGI [47]: > 100 µM
- GI50 [48]: 1.66 µM
- TGI [48]: 4.2 µM
- GI50 [49]: 2.38 µM
- TGI [49]: 7.4 µM
- GI50 [50]: 2.44 µM
- TGI [50]: 6.78 µM
- GI50 [51]: 5.33 µM
- TGI [51]: 25 µM
- GI50 [52]: 2.76 µM
- TGI [52]: 8.65 µM
- GI50 [53]: 4.21 µM
- TGI [53]: 31 µM
- GI50 [54]: 2.39 µM
- TGI [54]: 6.57 µM
- GI50 [55]: 3.67 µM
- TGI [55]: 14.9 µM
- GI50 [56]: 2.36 µM
- TGI [56]: 6.96 µM
- GI50 [57]: 1.98 µM
- TGI [57]: 4.01 µM
